34 compounds from patent US20240327393A1 (SIRONAX LTD., priority 2021, published 2024) can be followed below.

The test system of the first assay is HT-1080 (ATCC, CCL-121) cells. Kind of assay: HT-1080 cell viability assay with ferroptosis inducer RSL3 (Cell Titer-Glo). The class given is cell-based. As to conditions: Homo sapiens; HT-1080 cells treated with RSL3; 3-fold, 10-point dilution, 1.1 μM highest concentration; Table 2; read-out: EC50 (nM), ferroptosis inhibitory activity. Here is the method:
Example 2. Determination of EC50 Values in HT-1080 Cell Viability Assay
HT-1080 (ATCC, CCL-121) cells (6000 in 100 μl) were seeded in 96-well plates (Corning) and cultured in a 37° C. incubator with a humidified atmosphere of 5% CO2 for overnight. Cells were then treated with ferroptosis inducer RSL3 (TargetMol) and a 3-fold, 10-point serial dilution series of compounds with 1.1 μM as the highest concentration, […]. Cell viability was assessed using the Cell Titer-Glo Kit (Promega). The luminescence intensity was measured with a microplate reader (Envision, PerkinElmer), and cell viability was calculated by normalizing the data to untreated controls. The EC50 values of the compounds (e.g., Compounds 1-659) were calculated in GraphPad Prism (GraphPad Software, Inc., San Diego, CA, USA). The curves were fitted using a non-linear regression model with a sigmoidal dose response.
Background: ATP-based viability assays read luminescence as a measure of living cells.
As a reminder, the EC50 is the concentration that produces a half-maximal response. Regarding `CN1Cc2cc(Nc3cnc(N4CCCCC4)c(F)c3)ccc2C1=O` [Compound 183, 5-((5-fluoro-6-(piperidin-1-yl)pyridin-3-yl)amino)-2-methylisoindolin-1-one], the EC50 lay in the range of 0.1 to 100 nM.

On to `CC1CCN(c2ccc(Nc3cc4c(c([N+](=O)[O-])c3)CN(C(=O)C(F)(F)F)C4)cc2)CC1` [Compound 255, 2,2,2-trifluoro-1-(6-((4-(4-methylpiperidin-1-yl)phenyl)amino)-4-nitroisoindolin-2-yl)ethan-1-one], for which the EC50 is 0.1 to 100 nM.

With `CCCCCOc1ccc(Nc2ccc3c(c2)n(C)c(=O)n3C)cc1OC` [Compound 296, 5-((3-methoxy-4-(pentyloxy)phenyl)amino)-1,3-dimethyl-1,3-dihydro-2H-benzo[d]imidazol-2-one], the EC50 is 0.1 to 100 nM.

Regarding `Cc1cc(Nc2ccc(N3CCC(C(F)(F)F)CC3)cc2)cc2c1C(=O)N(C)C2` [Compound 326, 2,7-dimethyl-5-((4-(4-(trifluoromethyl)piperidin-1-yl)phenyl)amino) isoindolin-1-one], the EC50 lay in the range of 0.1 to 100 nM.

With `CC1CN(c2ccc(Nc3ccc4c(c3)oc(=O)n4C)cc2)CC(C)O1` (stereo not shown) [Compound 317, 6-((4-(2,6-dimethylmorpholino)phenyl)amino)-3-methylbenzo[d]oxazol-2(3H)-one], the EC50 is 0.1 to 100 nM.

Regarding `Cc1cc(Nc2ccc3c(c2)n(C)c(=O)n3C)ccc1N1CCC(C)CC1` [Compound 282, 1,3-dimethyl-5-((3-methyl-4-(4-methylpiperidin-1-yl)phenyl)amino)-1,3-dihydro-2H-benzo[d]imidazol-2-one], the EC50 was in the range of 0.1 to 100 nM.

Turning to `Cn1c(=O)[nH]c2cc(Nc3ccc(N4CCC(C(F)(F)F)CC4)cc3)ccc21` [Compound 363, 1-methyl-5-((4-(4-(trifluoromethyl)piperidin-1-yl)phenyl)amino)-1,3-dihydro-2H-benzo[d]imidazol-2-one], the EC50 lay in the range of 0.1 to 100 nM.

On to `CC(C)(C)NC(=O)N1Cc2ccc(Nc3ccc(N4CCC(C(F)(F)F)CC4)cc3)cc2C1` [Compound 205, N-(tert-butyl)-5-((4-(4-(trifluoromethyl)piperidin-1-yl)phenyl)amino) isoindoline-2-carboxamide], for which the concentration giving a half-maximal response (EC50) lay in the range of 0.1 to 100 nM.

For `Cn1c(=O)oc2ccc(Nc3ccc(N4CCC(CF)CC4)cc3)cc21` [Compound 391, 5-((4-(4-(fluoromethyl)piperidin-1-yl)phenyl)amino)-3-methylbenzo[d]oxazol-2(3H)-one], the EC50 was in the range of 0.1 to 100 nM.

For `CC1CCN(c2ccc(Nc3ccc4c(c3)CN(CC3CC3)C4=O)cc2)CC1` [Compound 184, 2-(cyclopropylmethyl)-5-((4-(4-methylpiperidin-1-yl)phenyl)amino) isoindolin-1-one], the EC50 was in the range of 0.1 to 100 nM.

As to `CCN1Cc2cc(Nc3cc(F)c(N4CCC(C)CC4)c(F)c3)ccc2C1=O` [Compound 193, 5-((3,5-difluoro-4-(4-methylpiperidin-1-yl)phenyl)amino)-2-ethylisoindolin-1-one], the EC50 lay in the range of 0.1 to 100 nM.

As to `Cc1nc2ccc(Nc3ccc(N4CCC(C(F)(F)F)CC4)cc3)cc2o1` [Compound 323, 2-methyl-N-(4-(4-(trifluoromethyl)piperidin-1-yl)phenyl)benzo[d]oxazol-6-amine], the EC50 lay within 0.1 to 100 nM.

For `CCC1Oc2cc(Nc3ccc(N4CCC(C(F)(F)F)CC4)cc3)ccc2N(C)C1=O` (stereo not shown) [Compound 68, 2-ethyl-4-methyl-7-((4-(4-(trifluoromethyl)piperidin-1-yl)phenyl)amino)-2H-benzo[b][1,4]oxazin-3(4H)-one], the EC50 was 0.1 to 100 nM.

`CCN1C(=O)COc2cc(Nc3ccc(N4CCC(C(F)(F)F)CC4)cc3)ccc21` [Compound 16, 4-ethyl-7-((4-(4-(trifluoromethyl)piperidin-1-yl)phenyl)amino)-2H-benzo[b][1,4]oxazin-3(4H)-one]: the EC50 was in the range of 0.1 to 100 nM.

For the compound `Cc1cc(N2CCC(C(F)(F)F)CC2)ccc1Nc1ccc2c(c1)OCC(=O)N2` [Compound 100, 7-((2-methyl-4-(4-(trifluoromethyl)piperidin-1-yl)phenyl)amino)-2H-benzo[b][1,4]oxazin-3(4H)-one], the EC50 was 0.1 to 100 nM.

`CC1CN(c2c(F)cc(Nc3ccc4c(c3)OCC(=O)N4C)cc2F)CC(C)O1` (stereo not shown) [Compound 67]: the EC50 was 0.1 to 100 nM.

Regarding `Cn1c(=O)n(C)c2cc(Nc3ccc(N4CCC(F)(F)CC4)cc3)ccc21` [Compound 297, 5-((4-(4,4-difluoropiperidin-1-yl)phenyl)amino)-1,3-dimethyl-1,3-dihydro-2H-benzo[d]imidazol-2-one], the EC50 is 0.1 to 100 nM.

Turning to `Cc1cc(Nc2ccc3c(c2)OCC(=O)N3)ccc1N1CC2CCC(C1)O2` [Compound 146, 7-((4-(8-oxa-3-azabicyclo[3.2.1]octan-3-yl)-3-methylphenyl)amino)-2H-benzo[b][1,4]oxazin-3(4H)-one], the EC50 was 0.1 to 100 nM.

For `Cn1cnc(N2Cc3cc(Nc4ccc(N5CCC(C(F)(F)F)CC5)cc4)ccc3C2=O)c1` [Compound 206, 2-(1-methyl-1H-imidazol-4-yl)-5-((4-(4-(trifluoromethyl)piperidin-1-yl)phenyl)amino)isoindolin-1-one], the EC50 was in the range of 0.1 to 100 nM.

Consider `CC1CCN(c2ncc(Nc3ccc4c(c3)n(C)c(=O)n4C)cn2)CC1` [Compound 376, 1,3-dimethyl-5-((2-(4-methylpiperidin-1-yl)pyrimidin-5-yl)amino)-1,3-dihydro-2H-benzo[d]imidazol-2-one], for which the concentration for a half-maximal effect (EC50) was in the range of 0.1 to 100 nM.

With `Cn1[nH]c2cc(Nc3ccc(N4CCC(C(F)(F)F)CC4)cc3)ccc2c1=O` [Compound 191, 2-methyl-6-((4-(4-(trifluoromethyl)piperidin-1-yl)phenyl)amino)-1,2-dihydro-3H-indazol-3-one], the EC50 lay within 0.1 to 100 nM.

As to `CC1CCN(c2ccc(Nc3ccc4c(c3)oc(=O)n4C)cc2)CC1` [Compound 273, 3-methyl-6-((4-(4-methylpiperidin-1-yl)phenyl)amino) benzo[d]oxazol-2(3H)-one], the EC50 is 0.1 to 100 nM.

Consider `NC(=O)CN1C(=O)COc2cc(Nc3ccc(N4CCC(C(F)(F)F)CC4)cc3)ccc21` [Compound 14, 2-(3-oxo-7-((4-(4-(trifluoromethyl)piperidin-1-yl)phenyl)amino)-2,3-dihydro-4H-benzo[b][1,4]oxazin-4-yl)acetamide], for which the EC50 is 0.1 to 100 nM.

On to `COCCN1C(=O)COc2cc(Nc3ccc(N4CC(C)OC(C)C4)cc3)ccc21` (stereo not shown) [Compound 95, 7-((4-(2,6-dimethylmorpholino)phenyl)amino)-4-(2-methoxyethyl)-2H-benzo[b][1,4]oxazin-3(4H)-one], for which the EC50 is 0.1 to 100 nM.

As to `CCC(C)(C)c1ccc(Nc2ccc3c(c2)n(C)c(=O)n3C)cc1` [Compound 411, 1,3-dimethyl-5-((4-(tert-pentyl)phenyl)amino)-1,3-dihydro-2H-benzo[d]imidazol-2-one], the EC50 fell in the range of 0.1 to 100 nM.

On to `CC1CCC(C)N1c1ccc(Nc2ccc3c(c2)oc(=O)n3C)cc1` (stereo not shown) [Compound 325, 6-((4-(2,5-dimethylpyrrolidin-1-yl)phenyl)amino)-3-methylbenzo[d]oxazol-2(3H)-one], for which the EC50 was in the range of 0.1 to 100 nM.

Staying with this assay, now noted: Homo sapiens; HT-1080 cells treated with RSL3; 3-fold, 10-point dilution, 1.1 μM highest concentration; Table 3; read-out: EC50 (nM), ferroptosis inhibitory activity.
As to `O=C1CCOc2cc(Nc3ccc(N4CCC(C(F)(F)F)CC4)cc3)ccc2N1` [Compound 534, 8-((4-(4-(trifluoromethyl)piperidin-1-yl)phenyl)amino)-2,3-dihydrobenzo[b][1,4]oxazepin-4(5H)-one], the EC50 lay within 0.1 to 100 nM.

Turning to `Cc1cc(N2CCC(C(F)(F)F)CC2)ccc1Nc1ccc2c(c1)OC[C@H](N)C(=O)N2` [Compound 601, (S)-8-(4-(4-(trifluoromethyl)piperidin-1-yl)-2-methylphenylamino)-3-amino-2,3-dihydrobenzo[b][1,4]oxazepin-4(5H)-one], the EC50 was in the range of 0.1 to 100 nM.

Take `COC1(C(F)(F)F)CN(c2ccc(Nc3ccc4c(c3)OCC(=O)N4)c(C)c2)C1` [Compound 633, 7-({4-[3-methoxy-3-(trifluoromethyl)azetidin-1-yl]-2-methylphenyl}amino)-2,4-dihydro-1,4-benzoxazin-3-one]: the EC50 fell in the range of 0.1 to 100 nM.

Turning to `COc1cc(Nc2cnc3c(c2)OCC(=O)N3)ccc1N1CCC(C(F)(F)F)CC1` [Compound 465, 7-((3-methoxy-4-(4-(trifluoromethyl)piperidin-1-yl)phenyl)amino)-2H-pyrido[3,2-b][1,4]oxazin-3(4H)-one], the EC50 is 0.1 to 100 nM.

For `COc1cc(Nc2cnc3c(c2)OCC(=O)N3C)ccc1N1CCC(C(F)(F)F)CC1` [Compound 464, 7-({3-methoxy-4-[4-(trifluoromethyl)piperidin-1-yl]phenyl}amino)-4-methyl-2H-pyrido[3,2-b][1,4]oxazin-3-one], the EC50 lay in the range of 0.1 to 100 nM.

For `Cc1cc(N2CCC(C(F)(F)F)CC2)ccc1Nc1cc(C)c2c(c1)OCC(=O)N2` [Compound 473, 5-methyl-7-((2-methyl-4-(4-(trifluoromethyl)piperidin-1-yl)phenyl)amino)-2H-benzo[b][1,4]oxazin-3(4H)-one], the 50% effective concentration (EC50) was 0.1 to 100 nM.

For the compound `O=C1COc2cc(Nc3ccc(N4CCC(C(F)(F)F)CC4)cc3)cc(F)c2N1` [Compound 619, 5-fluoro-7-({4-[4-(trifluoromethyl)piperidin-1-yl]phenyl}amino)-2,4-dihydro-1,4-benzoxazin-3-one], the EC50 fell in the range of 0.1 to 100 nM.

In the case of `Cc1cc(N2CC(C)OC(C)C2)ccc1Nc1cnc2c(c1)OCC(=O)N2` (stereo not shown) [Compound 462, 7-((4-(2,6-dimethylmorpholino)-2-methylphenyl)amino)-2H-pyrido[3,2-b][1,4]oxazin-3(4H)-one], the EC50 was 0.1 to 100 nM.
